Molecules are shown by their SMILES.

A word on the inhibition: it is the relative decrease from the control value, in per cent.

Holding throughout (type): in vivo
In assay [1] the test system is waterhemp (Amaranthus tuberculatus). In words: (12) Herbicidal effect test, pot, spray at 6.0 to 8.5 leaf stage. The conditions noted are these: 13th day after spraying. An excerpt: (§1) [formula] • X: growth inhibition rate when treated with α (g/ha) of compound A, • Y: growth inhibition rate when treated with β (g/ha) of compound B, • E: growth inhibition rate expected when treated with α (g/ha) of compound A and β (g/ha) of compound B (expected value).
(§2) Upland soil was put in a 1/1,000,000 hectare pot, and seeds of waterhemp (Amaranthus tuberculatus) were sown. When waterhemp reached 6.0 to 8.5 leaf stage, a water-based suspension containing tiafenacil as the active ingredient, prepared by a conventional method for preparing a water-based suspension, and an emulsifiable concentrate containing S-metolachlor as the active ingredient (tradename: Dual Gold, manufactured by Syngenta), a wettable powder containing metribuzin as the active ingredient (tradename: SENCOR wettable powder, manufactured by Bayer Crop Science) or water dispersible granules containing pyroxasulfone as the active ingredient (tradename: Sakura, manufactured by Bayer Crop Science) were diluted with water (in an amount corresponding to 200 liter per hectare) containing 0.5 vol % of an agricultural spreader (tradename: Destiny HC, manufactured by Winfield Solutions, LLC.) and sprayed by a small spray gun (model: W-101-132G, manufactured by ANEST IWATA Corporation). On the 13th day after spraying, the state of growth of the waterhemp was visually observed, and the growth inhibition rate (%) was obtained in accordance with the evaluation standards described in the above (1) herbicidal effect test, and the results are shown in Table 12. Further, the expected value of the growth inhibition rate (%) was calculated in accordance with the Colby's formula described in the above (1) herbicidal effect test, and the results are also shown in Table 12.

Assay [2] relates to goosegrass (Eleusine indica). The assay can be described thus: (10) Herbicidal effect test, pot, spray at 6.5 to 7.8 leaf stage. The settings on record: 13th day after spraying.
Source text: as §1
as §2, with “of goosegrass (Eleusine indica)” for “of waterhemp (Amaranthus tuberculatus)”, “When the goosegrass” for “When waterhemp”, “reached 6.5” for “reached 6.0”, “to 7.8” for “to 8.5”, “the goosegrass” for “the waterhemp”, “Table 10.” for “Table 12.”

Assay [3] concerns Italian ryegrass (Lolium multiflorum). In words: (8) Herbicidal effect test, pot, spray at 3.0 to 3.1 leaf stage. The conditions noted are these: 4th day after spraying.
Source text: as §1
as §2, with “Italian ryegrass (Lolium multiflorum)” for “waterhemp (Amaranthus tuberculatus)”, “Italian ryegrass” for “waterhemp”, “3.0” for “6.0”, “3.1” for “8.5”, “4th” for “13th”, “8.” for “12.”

The test system of assay [4] is forage corn (cultivar: SNOW DENT OTOHA). In words: (17) Plant growth promotion effect test (corn), Italian ryegrass sown. The settings on record: 20th day after the sowing, above-ground part. An excerpt:
Upland soil was put in a 1/1,000,000 hectare pot, and seeds of Italian ryegrass (Lolium multiflorum) were sown. When the Italian ryegrass reached 2.5 to 3.0 leaf stage, a water-based suspension containing tiafenacil as the active ingredient, prepared by a conventional method for preparing a water-based suspension, and an emulsifiable concentrate containing S-metolachlor as the active ingredient (tradename: Dual Gold, manufactured by Syngenta) or a wettable powder containing metribuzin as the active ingredient (tradename: SENCOR wettable powder, manufactured by Bayer Crop Science) were diluted with water (in an amount corresponding to 200 liter per hectare) containing 0.5 vol % of an agricultural spreader (tradename: Destiny HC, manufactured by Winfield Solutions, LLC.) and sprayed by a small spray gun (model: W-101-132G, manufactured by ANEST IWATA Corporation). Seeds of forage corn (cultivar: SNOW DENT OTOHA, manufactured by SNOW BRAND SEED Co., Ltd.) were sown in the pot after spraying. On the 20th day after the sowing, the above-ground part of the forage corn was reaped, and its weight was measured to obtain the raw weight.

For assay [5], the system named is wheat (cultivar: Norin 61). The assay can be described thus: (21) Plant growth promotion effect test (wheat), Italian ryegrass sown. The settings on record: 22nd day after the sowing, above-ground part. An excerpt:
Upland soil was put in a 1/1,000,000 hectare pot, and seeds of Italian ryegrass (Lolium multiflorum) were sown. When the Italian ryegrass reached 3.3 to 3.8 leaf stage, a water-based suspension containing tiafenacil as the active ingredient, prepared by a conventional method for preparing a water-based suspension, and a wettable powder containing metribuzin as the active ingredient (tradename: SENCOR wettable powder, manufactured by Bayer Crop Science) or water dispersible granules containing pyroxasulfone as the active ingredient (tradename: Sakura, manufactured by Bayer Crop Science) were diluted with water (in an amount corresponding to 200 liter per hectare) containing 0.5 vol % of an agricultural spreader (tradename: Destiny HC, manufactured by Winfield Solutions, LLC.) and sprayed by a small spray gun (model: W-101-132G, manufactured by ANEST IWATA Corporation). Seeds of wheat (cultivar: Norin 61, manufactured by Asahi Noen Seed Co., Ltd.) were sown in the pot after spraying. On the 22nd day after the sowing, the above-ground part of the wheat was reaped, and its weight was measured to obtain the raw weight.

For `CCc1cccc(C)c1N(C(=O)CCl)[C@@H](C)COC` [S-metolachlor], the “Growth inhibition rate (%) Measured value” in assay [1] (Dose 7.5 g/ha) was determined as 0%; in assay [1] (Dose 375 g/ha), 0%; in assay [1] (Dose 750 g/ha), 0%; in assay [2] (Dose 7.5 g/ha), 7%; in assay [2] (Dose 375 g/ha), 7%; in assay [2] (Dose 750 g/ha) it was 7%. Also, the “Growth inhibition rate (%) Measured value” in assay [3] (Dose 281 g/ha) turned out to be 7%; in assay [3] (Dose 500 g/ha), 10%; in assay [3] (Dose 625 g/ha), 13%. The “Raw weight (g) of forage corn” value in assay [4] (Dose 750 g/ha) is 5.1 g.
Consider `CSc1nnc(C(C)(C)C)c(=O)n1N` [metribuzin], for which the inhibition at 9.38 g/ha in assay [1] (Amaranthus tuberculatus, Dose 9.38 g/ha, read-out: Growth inhibition rate (%) Measured value) is 5%; in assay [2] (Eleusine indica, Dose 9.38 g/ha, read-out: Growth inhibition rate (%) Measured value) it was 7%. Moreover, the inhibition at 550 g/ha in assay [1] (Amaranthus tuberculatus, Dose 550 g/ha, read-out: Growth inhibition rate (%) Measured value) was found to be 37%; in assay [2] (Eleusine indica, Dose 550 g/ha, read-out: Growth inhibition rate (%) Measured value), 68%. Besides, the inhibition at 1100 g/ha in assay [1] (Amaranthus tuberculatus, Dose 1100 g/ha, read-out: Growth inhibition rate (%) Measured value) is 50%; in assay [2] (Eleusine indica, Dose 1100 g/ha, read-out: Growth inhibition rate (%) Measured value), 72%. For the same compound, the “Raw weight (g) of wheat” value in assay [5] (Dose 150 g/ha) came to 2.5 g. In addition, in assay [3] (Lolium multiflorum, Dose 125 g/ha, read-out: Growth inhibition rate (%) Measured value), the inhibition at 125 g/ha worked out at 3%. Also, in assay [3] (Lolium multiflorum, Dose 438 g/ha, read-out: Growth inhibition rate (%) Measured value), the inhibition at 438 g/ha stood at 10%. The inhibition at 750 g/ha in assay [3] (Lolium multiflorum, Dose 750 g/ha, read-out: Growth inhibition rate (%) Measured value) came to 20%. For the same compound, the inhibition at 938 g/ha in assay [3] (Lolium multiflorum, Dose 938 g/ha, read-out: Growth inhibition rate (%) Measured value) was 33%. In addition, in assay [4] (Dose 18.75 g/ha), the “Raw weight (g) of forage corn” value stood at 6.2 g.
As to `Cn1nc(C(F)(F)F)c(CS(=O)(=O)C2=NOC(C)(C)C2)c1OC(F)F` [pyroxasulfone], the inhibition at 7.5 g/ha in assay [1] (Amaranthus tuberculatus, Dose 7.5 g/ha, read-out: Growth inhibition rate (%) Measured value) stood at 10%; in assay [2] (Eleusine indica, Dose 7.5 g/ha, read-out: Growth inhibition rate (%) Measured value) it was 0%. In addition, the inhibition at 250 g/ha in assay [1] (Amaranthus tuberculatus, Dose 250 g/ha, read-out: Growth inhibition rate (%) Measured value) is 17%; in assay [2] (Eleusine indica, Dose 250 g/ha, read-out: Growth inhibition rate (%) Measured value), 2%. For the same compound, the inhibition at 500 g/ha worked out at 13% in assay [1] (Amaranthus tuberculatus, Dose 500 g/ha, read-out: Growth inhibition rate (%) Measured value) and 2% in assay [2] (Eleusine indica, Dose 500 g/ha, read-out: Growth inhibition rate (%) Measured value). Also, in assay [5] (Dose 37.5 g/ha), the “Raw weight (g) of wheat” value was found to be 1.2 g. For the same compound, in assay [3] (Lolium multiflorum, Dose 188 g/ha, read-out: Growth inhibition rate (%) Measured value), the inhibition at 188 g/ha is 10%. The inhibition at 375 g/ha in assay [3] (Lolium multiflorum, Dose 375 g/ha, read-out: Growth inhibition rate (%) Measured value) came out at 20%.
`COC(=O)CCNC(=O)C(C)Sc1cc(-n2c(=O)cc(C(F)(F)F)n(C)c2=O)c(F)cc1Cl` (stereo not drawn) [tiafenacil]: the “Growth inhibition rate (%) Measured value” stood at 33% in assay [1] (Dose 6.25 g/ha), 30% in assay [2] (Dose 6.25 g/ha) and 20% in assay [3] (Dose 6.25 g/ha). Besides, in assay [5] (Dose 3 g/ha), the “Raw weight (g) of wheat” value is recorded as 2.3 g. For the same compound, in assay [4] (Dose 12.5 g/ha), the “Raw weight (g) of forage corn” value worked out at 8.5 g.

These data come from US20250380696A1, “METHOD FOR CONTROLLING UNDESIRED PLANTS AND PROMOTING GROWTH OF USEFUL PLANTS” (ISHIHARA SANGYO KAISHA, LTD., priority 2022, published 2025).
